Results: ChEMBL document CHEMBL1124790, “Angiotensin converting enzyme inhibitors. 10. Aryl sulfonamide substituted N-[1-carboxy-3-phenylpropyl]-L-alanyl-L-proline derivatives as novel antihypertensives” (J Med Chem, 1990)

Assays:
[1] = target: T1, Angiotensin-converting enzyme (Oryctolagus cuniculus) (UniProt P12822); test: In vivo inhibition of Angiotensin I converting enzyme in rabbit lung after (po) administration of a dose of 10(mg/kg); assay type: organism-based
T1 sequence (whole entry): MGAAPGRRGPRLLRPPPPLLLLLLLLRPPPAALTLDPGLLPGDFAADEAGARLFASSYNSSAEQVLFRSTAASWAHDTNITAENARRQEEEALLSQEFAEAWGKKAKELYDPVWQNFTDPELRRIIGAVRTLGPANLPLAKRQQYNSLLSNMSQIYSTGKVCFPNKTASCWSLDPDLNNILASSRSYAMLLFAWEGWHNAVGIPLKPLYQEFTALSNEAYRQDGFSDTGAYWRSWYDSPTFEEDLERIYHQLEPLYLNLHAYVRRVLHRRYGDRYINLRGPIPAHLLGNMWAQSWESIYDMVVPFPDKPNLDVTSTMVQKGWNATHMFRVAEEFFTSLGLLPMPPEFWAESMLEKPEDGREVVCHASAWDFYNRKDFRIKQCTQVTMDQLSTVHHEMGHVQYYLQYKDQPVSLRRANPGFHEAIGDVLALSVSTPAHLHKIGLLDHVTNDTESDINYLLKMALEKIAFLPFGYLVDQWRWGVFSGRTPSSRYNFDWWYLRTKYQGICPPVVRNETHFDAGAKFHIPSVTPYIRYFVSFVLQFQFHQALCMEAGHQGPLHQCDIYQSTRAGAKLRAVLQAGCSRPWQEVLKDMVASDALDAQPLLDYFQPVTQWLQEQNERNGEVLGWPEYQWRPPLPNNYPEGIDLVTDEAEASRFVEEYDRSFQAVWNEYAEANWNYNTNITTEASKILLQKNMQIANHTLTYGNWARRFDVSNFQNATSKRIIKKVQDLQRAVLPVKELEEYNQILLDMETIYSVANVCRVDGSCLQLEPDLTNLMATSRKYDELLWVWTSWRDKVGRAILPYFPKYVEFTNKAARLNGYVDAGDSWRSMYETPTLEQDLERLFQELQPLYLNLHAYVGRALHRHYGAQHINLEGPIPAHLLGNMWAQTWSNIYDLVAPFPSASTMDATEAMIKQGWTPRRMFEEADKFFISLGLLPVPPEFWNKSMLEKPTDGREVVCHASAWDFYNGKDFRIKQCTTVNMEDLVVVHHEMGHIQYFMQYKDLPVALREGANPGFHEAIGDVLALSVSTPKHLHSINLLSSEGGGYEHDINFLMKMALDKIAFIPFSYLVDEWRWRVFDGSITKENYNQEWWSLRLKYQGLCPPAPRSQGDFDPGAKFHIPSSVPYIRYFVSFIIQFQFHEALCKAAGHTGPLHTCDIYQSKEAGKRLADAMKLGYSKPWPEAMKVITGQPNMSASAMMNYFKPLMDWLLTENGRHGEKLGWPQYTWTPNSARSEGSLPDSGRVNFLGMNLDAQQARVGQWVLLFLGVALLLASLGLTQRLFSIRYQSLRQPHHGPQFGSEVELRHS

[2] = target: T2, Angiotensin-converting enzyme (Oryctolagus cuniculus, UniProt P12822); test: In vitro inhibition of angiotensin I converting enzyme(ACE) in rabbit lung; assay type: tissue-based
T2 sequence (P12822 whole entry): T1 sequence (whole entry)

[3] = tested on: Angiotensin-converting enzyme (Sus scrofa); test: Time to inhibit maximum angiotensin I converting enzyme in Hog plasma
[4] = target: T1, Angiotensin-converting enzyme (Oryctolagus cuniculus); test: Time during which angiotensin I converting enzyme inhibition is greater than or equa to 30% in rabbit lung; assay type: functional, tissue-based
[5] = tested on: Rattus norvegicus; test: Percent change in urinary volume in fasted rats at the dose of 82 mg/kg (iv), 0-5 h; assay type: functional, Urine
[6] = target: T1, Angiotensin-converting enzyme (Oryctolagus cuniculus); test: In vivo inhibition of angiotensin I converting enzyme (ACE) in rabbit lung after (iv) administration of a dose of 10(mg/kg); assay type: organism-based
[7] = tested on: Angiotensin-converting enzyme (Sus scrofa); test: Time during which angiotensin I converting enzyme inhibition is greater than or equal to 30% in Hog plasma
[8] = tested on: Rattus norvegicus; test: Antihypertensive activity was determined in spontaneously hypertensive rat at a dose of 100 mg/kg(ip) administration; assay type: functional
[9] = tested on: Rattus norvegicus; test: Time duration was determined for the actioni (determination of MAP in case of oral administration) in rat; assay type: functional
[10] = tested on: Rattus norvegicus; test: Antihypertensive activity was determined in spontaneously hypertensive rat at a dose of 100 mg/kg(po) administration; assay type: functional
[11] = tested on: Rattus norvegicus; test: Percent change in Na+ in fasted rats at the dose of 82 mg/kg (iv), 0-5 h; assay type: functional
[12] = tested on: Rattus norvegicus; test: Percent change in K+ in fasted rats at the dose of 82 mg/kg (iv), 0-5 h; assay type: functional
[13] = tested on: Rattus norvegicus; test: Time duration was determined for the actioni (determination of MAP in ip administration) in rat; assay type: functional
[14] = target: T1, Angiotensin-converting enzyme (Oryctolagus cuniculus); test: Time to inhibit maximum angiotensin I converting enzyme in rabbit lung; assay type: functional, tissue-based
[15] = species: Rattus norvegicus; test: The onset hour was determined in rat; assay type: functional
[16] = target: T1, Angiotensin-converting enzyme (Oryctolagus cuniculus); test: In vivo inhibition of angiotensin I converting enzyme (ACE) in rabbit lung after (po) administration of a dose of 10(mg/kg); assay type: organism-based
[17] = target: Angiotensin-converting enzyme (Homo sapiens) (UniProt P12821+Q9BYF1); details: Sus scrofa; Plasma
[18] = target: T1, Angiotensin-converting enzyme (Oryctolagus cuniculus); test: Time to inhibit maximum Angiotensin I converting enzyme in rabbit lung; assay type: functional, tissue-based
[19] = target: T1, Angiotensin-converting enzyme (Oryctolagus cuniculus); details: Lung
[20] = tested on: Rattus norvegicus; test: Antihypertensive activity was determined in spontaneously hypertensive rat at a dose of 3 mg/kg(po) administration; assay type: functional
[21] = tested on: Rattus norvegicus; test: Time duration was determined for the actioni (determination of MAP in po administration) in rat; assay type: functional
[22] = target: T1, Angiotensin-converting enzyme (Oryctolagus cuniculus); test: Time during which Angiotensin I converting enzyme inhibition is greater than or equa to 30% in rabbit lung
[23] = tested on: Angiotensin-converting enzyme (Sus scrofa); test: Time to inhibit maximum Angiotensin I converting enzyme in Hog plasma
[24] = target: T1, Angiotensin-converting enzyme (Oryctolagus cuniculus); test: In vivo inhibition of Angiotensin I converting enzyme in rabbit lung after (iv) administration of a dose of 1.0(mg/kg); assay type: organism-based
[25] = target: T1, Angiotensin-converting enzyme (Oryctolagus cuniculus); test: In vivo inhibition of Angiotensin I converting enzyme in rabbit lung at the dose of 10(mg/kg), po; assay type: organism-based
[26] = tested on: Angiotensin-converting enzyme (Sus scrofa); test: Time during which ACE inhibition is greater than or equal to 30% in Hog plasma
[27] = target: T2, Angiotensin-converting enzyme; test: In vitro inhibition of Angiotensin I converting enzyme in rabbit lung; assay type: tissue-based

Chain of Angiotensin-converting enzyme (Homo sapiens) (P12821 whole entry, looked up): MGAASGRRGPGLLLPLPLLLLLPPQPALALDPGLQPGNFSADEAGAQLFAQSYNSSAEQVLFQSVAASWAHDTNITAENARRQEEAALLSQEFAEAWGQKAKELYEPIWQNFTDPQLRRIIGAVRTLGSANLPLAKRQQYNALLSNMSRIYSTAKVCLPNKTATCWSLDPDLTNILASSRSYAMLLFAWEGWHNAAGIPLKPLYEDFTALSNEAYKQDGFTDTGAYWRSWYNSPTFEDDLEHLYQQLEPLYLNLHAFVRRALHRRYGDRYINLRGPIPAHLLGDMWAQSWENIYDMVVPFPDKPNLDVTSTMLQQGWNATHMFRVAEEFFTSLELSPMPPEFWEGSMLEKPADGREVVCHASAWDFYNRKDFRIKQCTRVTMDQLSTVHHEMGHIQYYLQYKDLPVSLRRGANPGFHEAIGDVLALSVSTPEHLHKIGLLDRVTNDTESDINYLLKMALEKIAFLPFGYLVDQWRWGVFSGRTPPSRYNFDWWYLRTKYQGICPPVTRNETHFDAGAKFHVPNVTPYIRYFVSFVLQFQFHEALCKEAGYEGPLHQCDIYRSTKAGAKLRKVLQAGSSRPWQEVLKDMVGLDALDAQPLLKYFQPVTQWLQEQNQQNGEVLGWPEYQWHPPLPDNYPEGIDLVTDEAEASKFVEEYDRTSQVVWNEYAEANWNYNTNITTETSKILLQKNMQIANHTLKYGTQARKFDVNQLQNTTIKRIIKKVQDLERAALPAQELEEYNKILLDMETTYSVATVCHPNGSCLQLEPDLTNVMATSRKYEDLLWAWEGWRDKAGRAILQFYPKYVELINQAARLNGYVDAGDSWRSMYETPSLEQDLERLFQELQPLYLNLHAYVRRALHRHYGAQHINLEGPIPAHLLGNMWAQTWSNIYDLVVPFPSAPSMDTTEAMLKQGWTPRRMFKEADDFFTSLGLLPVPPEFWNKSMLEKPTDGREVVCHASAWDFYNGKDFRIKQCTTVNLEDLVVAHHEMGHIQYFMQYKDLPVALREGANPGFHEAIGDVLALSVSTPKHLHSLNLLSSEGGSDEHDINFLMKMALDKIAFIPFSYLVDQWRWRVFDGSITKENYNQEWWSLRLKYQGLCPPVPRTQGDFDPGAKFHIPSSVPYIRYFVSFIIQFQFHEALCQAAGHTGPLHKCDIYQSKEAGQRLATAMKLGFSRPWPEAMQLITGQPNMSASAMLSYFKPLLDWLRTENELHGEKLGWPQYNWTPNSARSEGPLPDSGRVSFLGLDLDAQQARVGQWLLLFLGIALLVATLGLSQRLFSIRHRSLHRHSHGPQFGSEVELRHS
Chain of Angiotensin-converting enzyme (Homo sapiens) (Q9BYF1 whole entry, looked up): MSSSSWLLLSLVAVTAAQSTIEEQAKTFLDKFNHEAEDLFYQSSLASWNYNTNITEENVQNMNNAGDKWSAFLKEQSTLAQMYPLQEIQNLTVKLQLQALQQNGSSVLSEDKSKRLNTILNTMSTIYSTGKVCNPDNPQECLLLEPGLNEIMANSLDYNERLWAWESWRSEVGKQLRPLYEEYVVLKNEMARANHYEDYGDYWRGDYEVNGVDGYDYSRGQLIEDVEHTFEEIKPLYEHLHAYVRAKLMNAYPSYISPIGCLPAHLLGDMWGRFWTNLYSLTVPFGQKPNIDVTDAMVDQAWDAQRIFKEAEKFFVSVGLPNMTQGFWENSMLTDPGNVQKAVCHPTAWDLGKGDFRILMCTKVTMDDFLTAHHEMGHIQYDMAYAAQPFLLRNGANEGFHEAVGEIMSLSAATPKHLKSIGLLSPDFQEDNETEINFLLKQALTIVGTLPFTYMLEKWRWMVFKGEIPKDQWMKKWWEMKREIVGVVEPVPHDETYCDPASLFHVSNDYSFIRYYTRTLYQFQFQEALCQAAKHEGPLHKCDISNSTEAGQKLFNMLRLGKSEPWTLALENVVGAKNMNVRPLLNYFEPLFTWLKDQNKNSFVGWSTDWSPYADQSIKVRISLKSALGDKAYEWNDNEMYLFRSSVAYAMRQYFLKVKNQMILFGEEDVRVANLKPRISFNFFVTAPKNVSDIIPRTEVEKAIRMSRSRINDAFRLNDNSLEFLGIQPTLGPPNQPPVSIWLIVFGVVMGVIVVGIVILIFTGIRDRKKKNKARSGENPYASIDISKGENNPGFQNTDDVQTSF

Compound: C[C@H](N[C@@H](CCc1ccccc1)C(=O)O)C(=O)N1CCC[C@H]1C(=O)O
- inhibition [1]: 74%

Compound: C[C@H](N[C@@H](CCc1ccccc1)C(=O)O)C(=O)N1C[C@H](OCCC2Nc3cc(Cl)c(S(N)(=O)=O)cc3S(=O)(=O)N2)C[C@H]1C(=O)O (some centres not stated)
- IC50 [2]: 22 nM
- Time to max. inhibition [3]: 2.6 h
- Duration [4]: 3.7 h
- Change [5]: 0%
- inhibition [6]: 100%
- Duration [7]: 1.6 h
- Change in MAP [8]: -35%
- Duration [9]: 19 h
- Change in MAP [10]: -19%
- Change [11]: 60%
- Change [12]: 80%
- Duration [13]: >14 h
- Time to max. inhibition [14]: 0.3 h
- Onset [15]: 0.25 h
- inhibition [16]: 38%

Compound: CCOC(=O)[C@H](CCc1ccccc1)N[C@@H](C)C(=O)N1CCC[C@H]1C(=O)O
- Duration [17]: > 3 h
- Time to max. inhibition [18]: 1 h
- Duration [19]: > 4 h
- Change in MAP [20]: -10%
- Duration [21]: 4 h
- Onset [15]: 1 h

Compound: C[C@H](N[C@@H](CCc1ccccc1)C(=O)O)C(=O)N1CC(NNC(=O)c2ccc(Cl)c(S(N)(=O)=O)c2)C[C@H]1C(=O)O (some centres not stated)
- Duration [22]: 3 h
- Time to max. inhibition [23]: 0.3 h
- inhibition [24]: 85%
- Time to max. inhibition [18]: 0.3 h
- inhibition [25]: 52%
- Duration [26]: 0 h
- IC50 [27]: 26 nM

Compound: C[C@H](CS)C(=O)N1CCC[C@H]1C(=O)O
- inhibition [1]: 69%
- Time to max. inhibition [18]: 0.7 h
- Duration [19]: 2 h
